Earlier results on two compounds are cited in US20230149295A1, “INFLAMMATORY BOWEL DISEASE STEM CELLS, AGENTS WHICH TARGET IBD STEM CELLS, AND USES RELATED THERETO” (University of Houston System, priority 2020, published 2023).

For one data set, the target named is STAT3 (Homo sapiens, UniProt P40763). Particulars: cell-free assays; read-out: IC50 for inhibition of STAT3 activation and nuclear translocation.
Another data set deals with T1, STAT1 (Homo sapiens, UniProt P42224).
T1 sequence (P42224 1-750): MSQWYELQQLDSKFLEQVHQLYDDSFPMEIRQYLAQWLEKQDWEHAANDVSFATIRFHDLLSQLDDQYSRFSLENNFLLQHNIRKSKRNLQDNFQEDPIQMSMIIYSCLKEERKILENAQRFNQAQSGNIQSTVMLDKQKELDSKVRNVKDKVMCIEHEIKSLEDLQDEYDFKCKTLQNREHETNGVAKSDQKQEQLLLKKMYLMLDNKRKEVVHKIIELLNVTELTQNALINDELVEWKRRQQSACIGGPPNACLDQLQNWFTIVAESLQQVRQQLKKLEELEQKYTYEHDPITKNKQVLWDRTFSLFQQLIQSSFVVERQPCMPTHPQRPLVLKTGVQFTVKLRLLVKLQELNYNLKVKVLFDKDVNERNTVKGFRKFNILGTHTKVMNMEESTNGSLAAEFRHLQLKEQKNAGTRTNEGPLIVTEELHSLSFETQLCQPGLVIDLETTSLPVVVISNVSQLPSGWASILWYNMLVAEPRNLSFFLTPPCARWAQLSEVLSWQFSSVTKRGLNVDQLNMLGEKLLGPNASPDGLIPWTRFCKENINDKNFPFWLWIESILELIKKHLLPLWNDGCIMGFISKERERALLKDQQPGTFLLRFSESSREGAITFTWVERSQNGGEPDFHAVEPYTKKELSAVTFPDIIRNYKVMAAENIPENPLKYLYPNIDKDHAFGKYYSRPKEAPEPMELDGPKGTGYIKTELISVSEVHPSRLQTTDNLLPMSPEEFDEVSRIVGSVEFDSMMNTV
Particulars: cell-free assays.

Chain of STAT3 (P40763 whole entry, species assumed): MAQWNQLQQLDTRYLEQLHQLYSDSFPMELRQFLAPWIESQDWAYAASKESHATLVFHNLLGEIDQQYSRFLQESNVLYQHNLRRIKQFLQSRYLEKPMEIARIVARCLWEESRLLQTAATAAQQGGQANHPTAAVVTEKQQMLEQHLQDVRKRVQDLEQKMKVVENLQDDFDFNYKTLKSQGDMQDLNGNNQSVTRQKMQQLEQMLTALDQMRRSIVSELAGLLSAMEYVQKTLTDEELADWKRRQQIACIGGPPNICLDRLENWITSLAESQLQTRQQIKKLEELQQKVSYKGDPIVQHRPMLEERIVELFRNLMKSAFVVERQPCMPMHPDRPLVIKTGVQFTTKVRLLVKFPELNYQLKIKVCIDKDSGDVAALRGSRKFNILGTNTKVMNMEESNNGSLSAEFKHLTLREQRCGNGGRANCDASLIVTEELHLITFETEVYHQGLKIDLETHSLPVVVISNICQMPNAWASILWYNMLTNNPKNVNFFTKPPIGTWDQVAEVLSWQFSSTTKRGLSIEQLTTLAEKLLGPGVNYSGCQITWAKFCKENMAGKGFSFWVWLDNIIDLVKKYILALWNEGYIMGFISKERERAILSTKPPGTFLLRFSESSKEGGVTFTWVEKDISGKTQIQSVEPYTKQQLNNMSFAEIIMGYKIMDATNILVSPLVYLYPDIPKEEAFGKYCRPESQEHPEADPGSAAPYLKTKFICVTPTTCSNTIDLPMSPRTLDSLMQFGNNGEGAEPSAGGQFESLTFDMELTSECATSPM

The term IC50 denotes the point on the concentration scale where inhibition reaches its midpoint. For `O=[N+]([O-])c1ccc2c(c1)S(=O)(=O)C=C2` [Stattic], the IC50 at STAT3 was 5.1 µM. The “selectivity for STAT3 over STAT1” value on STAT1 is “highly selectivity over STAT1”. Consider `C=CC(=O)Nc1cccc(Sc2nc(Nc3ccc(N4CCN(C)CC4)cc3)ncc2Cl)c1` [WZ8040], for which the “inhibition of ERBB2 phosphorylation (T7981)” value in the data set with ERBB2 is recorded as “does not inhibit”.
